The values that follow are results of earlier work, collected in US20210121517A1, “STABLE PARENTERAL DOSAGE FORM OF CETRORELIX ACETATE” (Sun Pharmaceutical Industries Limited, priority 2019, published 2021).

Read-outs that look alike come from different tables or passages of the source.

The conditions of this series: 2.5 mg/ml.

For the substance “acetyl-D-3-(2′-naphtyl)-alanine-D-4-chlorophenylalanine-D-3-(3′-pyridyl)-alanine-L-serine-L-tyrosine-D-citruline-L-leucine-L-arginine-L-proline-D-alanine-amide [Cetrorelix acetate]”, the “time until aggregation was seen” value is on record as 12 days (gluconic acid 0.71%, pH 3.1) and at most 2 days (gluconic acid less than 0.07%, pH 3.7).
